Tests used:
Type in all cases: in vivo
[1] = test system: barnyardgrass (Echinochloa crus-galli, ECHCG); assay: Test A post-emergence, barnyardgrass; settings: after 13 d
In short: (§1)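 Foliar application to 8-day-old seedlings at 15.625, 62.5 or 250 g/ha; phytotoxicity scored 0–100 after 13 d.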

[2] = test system: ivy-leaved morning glory (Ipomoea hederacea, IPOHE); assay: Test A post-emergence, ivy-leaved morning glory; settings: after 13 d
In short: as §1

wheat = assay: Test D pre-emergence, wheat seed treated with a herbicide safener; settings: 100=total damage, 0=no damage
Experimental: (§2) A formulation containing 50 g/L of the test chemical was prepared by dissolving the active ingredient in a mixture of organic solvents and emulsifier, details of which are provided in the table. This formulation was then mixed with a small, variable amount of acetone to aid dissolution, before addition of a 0.2% v/v aqueous solution of an adjuvant, as the aqueous diluent, to form an aqueous spray solution which contains a predetermined concentration of the active ingredient.
(§3) This aqueous spray solution was then sprayed onto plants including maize and wheat that had been seed treated with a herbicide safener, after one day's cultivation (for pre-emergence) or after about 12 days' cultivation (for post-emergence). The plants were grown from seeds sown in standard soil, placed in a glasshouse under controlled conditions (at 24/18° C. or 20/16° C., day/night; 16 h light; 65% humidity). After spray application the plants were then grown in a glasshouse under the same conditions and watered twice daily. After 15 d for post-emergence and 20 DAA for pre-emergence the test was evaluated (100=total damage to plant; 0=no damage to plant).

[3] = test system: velvetleaf (Abutilon theophrasti, ABUTH); assay: Test A pre-emergence, velvetleaf; settings: after 13 d
In short: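 After sowing in pots and a single day of glasshouse cultivation, the soil was treated with an aqueous spray of the compound (acetone/water 50:50, 0.5% Tween 20) giving 15.625, 62.5 or 250 g/ha. Evaluation after 13 d used a scale where 0 meant no damage and 100 total damage.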

maize = assay: Test D pre-emergence, maize seed treated with a herbicide safener; settings: ZEAMX, preemergent, 20 DAA
Experimental: as §2, §3

Compound | damage to plant (100=total damage; 0=no damage) ECHCG ([1]; Post-Emergence at 15.625 g/ha) | damage to plant (100=total damage; 0=no damage) ECHCG ([1]; Post-Emergence at 62.5 g/ha) | damage to plant (100=total damage; 0=no damage) ECHCG ([1]; Post-Emergence at 250 g/ha) | damage to plant (100=total damage; 0=no damage) IPOHE ([2]; Post-Emergence at 15.625 g/ha) | damage to plant (100=total damage; 0=no damage) IPOHE ([2]; Post-Emergence at 62.5 g/ha) | damage to plant (100=total damage; 0=no damage) IPOHE ([2]; Post-Emergence at 250 g/ha) | damage to plant, TRZAW (wheat; rate 15, 20 DAA) | damage to plant, TRZAW (wheat; rate 30, 20 DAA) | damage to plant, TRZAW (wheat; rate 60, 20 DAA) | damage to plant, TRZAW (wheat; rate 130, 20 DAA) | damage to plant, TRZAW (wheat; rate 250, 20 DAA) | damage to plant, TRZAW (wheat; rate 500, 20 DAA) | damage to plant (100=total damage; 0=no damage) ABUTH ([3]; Pre-Emergence at 15.625 g/ha) | damage to plant (100=total damage; 0=no damage) ABUTH ([3]; Pre-Emergence at 62.5 g/ha) | damage to plant (100=total damage; 0=no damage) ABUTH ([3]; Pre-Emergence at 250 g/ha) | damage to plant (100=total damage to plant; 0=no damage to plant), ZEAMX (maize; rate 15) | damage to plant (100=total damage to plant; 0=no damage to plant), ZEAMX (maize; rate 30) | damage to plant (100=total damage to plant; 0=no damage to plant), ZEAMX (maize; rate 60) | damage to plant (100=total damage to plant; 0=no damage to plant), ZEAMX (maize; rate 130) | damage to plant (100=total damage to plant; 0=no damage to plant), ZEAMX (maize; rate 250) | other results
CN1CC(c2cc(C(F)(F)F)n(C)n2)C(C(=O)Nc2cccc(F)c2F)C1=O (racemic) [Compound 3] | 90 | 90 | 90 | 0 | 0 | 0 | 0 | 0 | 0 | 0 | 0 | 60 | 0 | 0 | 10 | 0 | 0 | 0 | 0 | 0 | damage to plant (100=total damage to plant; 0=no damage to plant), ZEAMX (maize; rate 500): 0
CN1CC(c2cc(C(F)(F)F)n(C)n2)C(C(=O)Nc2ccc(F)cc2F)C1=O (racemic) [Compound 6] | 70 | 70 | 70 | 40 | 20 | 10 | 0 | 0 | 0 | 0 | 0 | 10 | 80 | 70 | 70 | 0 | 0 | 0 | 0 | 0 | damage to plant (100=total damage to plant; 0=no damage to plant), ZEAMX (maize; rate 500): 0
CN1CC(c2cc(C(F)(F)F)n(C)n2)C(C(=O)Nc2ccccc2F)C1=O (racemic) [Compound 9] | 60 | 90 | 90 | 10 | 0 | 0 | 0 | 0 | 0 | 0 | 0 | 0 | 0 | 0 | 0 | 0 | 0 | 0 | 0 | 0 | damage to plant (100=total damage to plant; 0=no damage to plant), ZEAMX (maize; rate 500): 0
CN1CC(c2cc(C(F)(F)F)n(C)n2)C(C(=O)Nc2ccc(F)c(F)c2F)C1=O (racemic) [Compound 17] | 60 | 70 | 80 | 0 | 0 | 0 | 0 | 0 | 0 | 50 | 60 | 90 | 0 | 0 | 10 | 0 | 0 | 0 | 0 | 10 | damage to plant (100=total damage to plant; 0=no damage to plant), ZEAMX (maize; rate 500): 30
COc1c(F)cccc1NC(=O)C1C(=O)N(C)CC1c1cc(C(F)(F)F)n(C)n1 (racemic) [Compound 18] | 50 | 70 | 70 | 10 | 20 | 50 | 0 | 0 | 0 | 0 | 20 | 30 | 0 | 0 | 0 | 0 | 0 | 0 | 0 | 0 | damage to plant (100=total damage to plant; 0=no damage to plant), ZEAMX (maize; rate 500): 0
CN1CC(c2cc(C(F)(F)F)n(C)n2)C(C(=O)Nc2cccc(F)c2C(F)(F)F)C1=O (racemic) [Compound 19] | 60 | 70 | 80 | 0 | 0 | 0 | 0 | 0 | 0 | 0 | 10 | 60 | 0 | 0 | 0 | 0 | 0 | 0 | 0 | 0 | damage to plant (100=total damage to plant; 0=no damage to plant), ZEAMX (maize; rate 500): 0
CN1CC(c2cc(C(F)(F)F)n(C)n2)C(C(=O)Nc2ccc(F)nc2F)C1=O (racemic) [Compound 22] | 60 | 70 | 80 | 0 | 10 | 30 | 0 | 0 | 0 | 0 | 0 | 10 | 0 | 0 | 0 | 0 | 0 | 0 | 0 | 0 | damage to plant (100=total damage to plant; 0=no damage to plant), ZEAMX (maize; rate 500): 0

Reference: patent US20220281848A1, “PYRAZOLE-SUBSTITUTED PYRROLIDINONES AS HERBICIDES” (FMC Corporation, priority 2019, published 2022)
